Measured values: US8410309B2, “Phenoxy carboxylic acid compounds and compositions for delivering active agents” (Emisphere Technologies, Inc., priority 1999, dated 2013)
Where “and” joins values, the source holds several entries; their conditions need not be identical. Identical values can stand only once.

Experiments:
[1] = Recombinant human growth hormone (rhGH) oral delivery, serum rhGH by immunoassay; conditions: oral gavage, rats; delivery agent compound 200 mg/kg, rhGH 3 mg/kg, volume dose 1 ml
Description: Oral gavage (PO) dosing solutions of delivery agent compound and rhGH in phosphate buffer were prepared by mixing. A solution of the delivery agent compound was made either with the sodium salt of the delivery agent compound or by converting the free acid to its sodium salt.
The typical dosing and sampling protocols were as follows. Male Sprague-Dawley rats weighing 200-250 g were fasted for 24 hours and administered ketamine (44 mg/kg) and chlorpromazine (1.5 mg/kg) 15 minutes prior to dosing and again as needed to maintain anesthesia. A dosing group of five animals was administered one of the dosing solutions. An 11 cm Rusch 8 French catheter was adapted to a 1 ml syringe with a pipette tip. The syringe was filled with dosing solution by drawing the solution through the catheter, which was then wiped dry. The catheter was placed down the esophagus leaving 1 cm of tubing past the incisors. The dosing solution was administered by pressing the syringe plunger.
Blood samples were collected serially from the tail artery typically at time=15, 30, 45, 60 and 90 minutes. The five samples from each time period were pooled (except for those samples for which standard deviation (SD) and standard error (SE) are reported). Serum rHGH concentrations were quantified by an rHGH immunoassay test kit (Kit # K1F4015 from Genzyme Corporation Inc., Cambridge, Mass.).

[2] = Salmon calcitonin (sCT) oral delivery, serum sCT by EIA; conditions: rats, delivery agent compound dose 150 mg/kg, sCT dose 30 μg/kg
[3] = Heparin oral/intracolonic delivery, clotting time by activated partial thromboplastin time (APTT); assay type: in vivo, Sprague-Dawley rats; conditions: IC (intracolonic), rats; delivery agent compound 50 mg/kg, heparin 25 mg/kg, volume dose 1 ml; baseline about 20 seconds
Description: Oral gavage (PO) and/or intracolonic (IC) dosing solutions containing a delivery agent compound and heparin sodium USP were prepared in 25% aqueous propylene glycol. […] This dry mixture was dissolved in 25% v/v aqueous propylene glycol, vortexed, and placed in a sonicator (about 37° C.). The pH was adjusted to about 7 (6.5 to 8.5) with aqueous NaOH (2N). The dosing solution was sonicated to produce a clear solution. The final volume was adjusted to about 3.0 ml.
(§1) The typical dosing and sampling protocols were as follows. […] The dosing solution was expressed slowly into the colon by pressing the syringe plunger.
Citrated blood samples were collected by cardiac puncture following the administration of ketamine (88 mg/kg), typically at 0.25, 0.5, 1.0 and 1.5 hours after dosing. Heparin absorption was verified by an increase in clotting time measured by the activated partial thromboplastin time (APTT) according to the method of Henry, J. B., Clinical Diagnosis and Management by Laboratory Methods, Philadelphia, Pa., W.B. Saunders (1979). Previous studies indicated baseline values of about 20 seconds.

[4] = Low molecular weight heparin (LMWH) oral/intracolonic delivery, plasma LMWH by anti-Factor Xa assay; assay type: in vivo, Sprague-Dawley rats; conditions: IC, rats, delivery agent compound 50 mg/kg, LMWH 750 IU/kg, 1 ml/kg
Description: Oral dosing (PO) and/or intracolonic (IC) compositions containing a delivery agent compound and low molecular weight heparin (LMWH) were prepared in 25% aqueous propylene glycol. […] Typically, the delivery agent compound and LMWH (Parnaparin, 91 IU/mg average molecular weight about 5,000, available from Opocrin, Modena, Italy) (typically 90-105 IU/mg, average molecular weight about 5,000) were mixed by vortex as dry powders. This dry mixture was dissolved in 25% v/v aqueous propylene glycol, vortexed, and placed in a sonicator (37° C.) to produce a clear solution. The pH was adjusted to about 7 (6.5-8.5) with 2N aqueous NaOH. The dosing solution was sonicated to produce a clear solution. The final volume was adjusted to 3.0 ml.
as §1
Citrated blood samples were collected by cardiac puncture following the administration of ketamine (88 mg/kg), typically at 0.5, 1.0, 2.0, 3.0 and 4.0 hours after dosing. LMWH absorption was verified by an increase in plasma LMWH measured by the anti-Factor Xa assay CHROMOSTRATE™ Heparin anti-Xa assay (available from Organon Teknika Corporation, Durham, N.C.). […] The peak of these mean plasma LMWH concentrations is reported below in Table 5.

[5] = Insulin oral delivery, serum human insulin by ELISA; conditions: rats
Description: Oral dosing (PO) compositions of delivery agent compound and human zinc insulin (minimum 26 IU/mg available from Calbiochem—Novabiochem Corp, La Jolla, Calif.) were prepared in deionized water. […] The pH was adjusted to about 7 to 8.5 with NaOH or HCl. […] The final delivery agent compound dose, insulin dose and dose volume amounts are listed below in Table 8.
The typical dosing and sampling protocols were as follows.
Serum insulin levels were determined with an Insulin ELISA Test Kit (Kit # DSL-10-1600 from Diagnostic Systems Laboratories, Inc., Webster, Tex.), modifying the standard protocol in order to optimize the sensitivity and linear range of the standard curve for the volumes and concentrations of the samples used in the present protocol. […] The five values for each time point were averaged and the results plotted as serum insulin concentration versus time.

[6] = delivery agent compound 200 mg/kg, insulin 0.5 mg/kg, 1 ml/kg
[7] = delivery agent compound 200 mg/kg, insulin 3 mg/kg, 1 ml/kg
[8] = delivery agent compound 100 mg/kg, insulin 3 mg/kg, 0.5 ml/kg

For `COc1cccc(OCCCCCCCC(=O)O)c1C(C)=O` [Compound 39], the “Mean Peak Serum [rhGH]” value [1] was 0 ng/mL and the “Mean Peak Serum sCT (pg/ml ± SD) (SE)” value ([2]; dose volume 1 (ml), 150 mg/kg) was 115 ± 120 pg/mL and 115 ± 178 pg/mL.
With `CNC(=O)c1ccccc1OCCCCCCCCCC(=O)O` [Compound 51] the “Mean Peak APTT ± SD” value [3] was 92.5 ± 41.5 s.
In the case of `NC(=O)c1ccccc1OCc1ccc(C(=O)O)cc1` [Compound 52], the “Mean Peak Serum [rhGH]” value [1] is reported as 0 ng/mL and the “Mean Peak Serum sCT (pg/ml ± SD) (SE)” value ([2]; dose volume 1 (ml)) is reported as 163 ± 300 pg/mL.
With `CC(=O)c1ccccc1OCCCCCCCCCC(=O)O` [Compound 54] the “Mean Peak Serum [rhGH]” value [1] was 6.37 ng/mL, the “Mean Peak Plasma LMWH Concentration ± SD” value [4] was 3.046 ± 0.422 IU/ml and the “Mean Peak Serum sCT (pg/ml ± SD) (SE)” value ([2]; dose volume 1 (ml)) was 34 ± 47 pg/mL. For the same compound, the “Mean Peak APTT ± SD” value [3] was 31.56 ± 7.54 s.
With `COc1ccc(OCCCCCCCC(=O)O)c(C(C)=O)c1` [Compound 55] the “Mean Peak Serum [rhGH]” value [1] was 12.4 ng/mL.
In the case of `COc1ccc(C(C)=O)c(OCCCCCCCC(=O)O)c1` [Compound 56], the “Mean Peak Serum [rhGH]” value [1] is reported as 0 ng/mL and the “Mean Peak Serum sCT (pg/ml ± SD) (SE)” value ([2]; dose volume 1 (ml), 150 mg/kg) is reported as 165 ± 243 pg/mL and 90 ± 125 pg/mL and 113 ± 115 pg/mL and 175 ± 150 pg/mL.
In the case of `O=Cc1ccccc1OCc1ccc(C(=O)O)cc1` [Compound 59], the “Mean Peak Serum [INS] ± SD” value [5, 6] is reported as 315.53 ± 154.56 μU/ml.
With `O=Cc1ccccc1OCCCCCC(=O)O` [Compound 60] the “Mean Peak Serum [rhGH]” value [1] was 1.5 ± 3.3 ng/mL.
For `CC(=O)c1ccc(OCCCCCCCC(=O)O)cc1` [Compound 62], the “Mean Peak Serum [rhGH]” value [1] was 6.2 ng/mL, the “Mean Peak Serum sCT (pg/ml ± SD) (SE)” value ([2]; dose volume 1 (ml)) was 117 ± 158 pg/mL and the “Mean Peak APTT ± SD” value [3] was 152.41 ± 136.63 s and 91.204 ± 117.43 s.
In the case of `CC(=O)c1cccc(OCCCCCCCC(=O)O)c1` [Compound 64], the “Mean Peak Serum [rhGH]” value [1] is reported as 5 ng/mL, the “Mean Peak Serum sCT (pg/ml ± SD) (SE)” value ([2]; dose volume 1 (ml)) is reported as 138 ± 148 pg/mL and the “Mean Peak APTT ± SD” value [3] is reported as 220.988 ± 122.2 s and 125.372 ± 114.72 s.
In the case of `O=C(O)c1ccc(COc2ccccc2)cc1` [Compound 66], the “Mean Peak Serum [rhGH]” value [1] is reported as 0 ng/mL, the “Mean Peak Plasma LMWH Concentration ± SD” value ([4]; 50 mg/kg) is reported as 0.952 IU/ml and 1.114 ± 0.254 IU/ml and the “Mean Peak Serum sCT (pg/ml ± SD) (SE)” value ([2]; dose volume 4 (ml)) is reported as 109 ± 244 pg/mL.
With `O=C(O)CCCCCCCOc1cccc(Cl)c1` [Compound 68] the “Mean Peak Serum [INS] ± SD” value [5, 7] was 76.23 ± 76.88 μU/ml.
With `O=C(O)CCCCCCCCCCOc1ccccc1O` [Compound 72] the “Mean Peak Serum [rhGH]” value [1] was 28 ng/mL and the “Mean Peak Serum [INS] ± SD” value [5, 7] was 4702.5 ± 4700.4 μU/ml.
With `O=C(O)CCCCCCCOc1ccccc1Cl` [Compound 73] the “Mean Peak Serum [INS] ± SD” value [5, 8] was 147.66 ± 176.71 μU/ml.
With `O=C(O)CCCCCCCOc1cc([N+](=O)[O-])ccc1O` [Compound 74] the “Mean Peak Serum [INS] ± SD” value [5, 8] was 70.69 ± 127.89 μU/ml.
For `O=C(O)CCCCOc1ccccc1F` [Compound 75], the “Mean Peak Serum [INS] ± SD” value [5, 6] was 33.88 ± 38.49 μU/ml and 32.54 ± 19.78 μU/ml.
For `O=C(O)CCCCOc1ccccc1C(F)(F)F` [Compound 76], the “Mean Peak Serum [INS] ± SD” value [5, 6] was 24.72 ± 25.53 μU/ml and 38.74 ± 74.4 μU/ml.
For `O=C(O)c1ccc(C(O)COc2ccccc2O)cc1` (stereo not shown) [Compound 79], the “Mean Peak Serum sCT (pg/ml ± SD) (SE)” value ([2]; dose volume 1 (ml)) was 133 ± 90 pg/mL.
